Where two headings read alike, the source gives them in different places.
How the values were obtained:
Format in all cases: physicochemical
[1] = Hygroscopicity by Dynamic Vapour Sorption (DVS); details: 25° C.; for Hygroscopicity: DVS, 0 to 90% RH, potassium salt
Procedure: Dynamic Vapour Sorption (DVS) analysis was carried out on a sample of Example compound 1.
Approximately 20 mg of sample was placed into a wire-mesh vapour sorption balance pan and loaded into an ‘IgaSorp’ vapour sorption balance (Hiden Analytical Instruments). The sample was then dried by maintaining a 0% humidity environment until no further weight change was recorded.
The sample was then subjected to a step profile from 0 to 90% RH at 10% RH increments. The desorption isotherm was from 90% RH o 0% RH in 10% RH steps. The weight change during the sorption/desorption cycles were then monitored, allowing for the hygroscopic nature of the sample to be determined. Analysis was performed using the following parameters: • Analysis Mode F1 • Wait Time 99% • Sample Temperature 25° C. • Min Time Out 30 Mins • MaxTime Out 180 Mins • Gas Flow Rate 250 ml/min

[2] = Stability in aqueous solutions (impurity profile by HPLC-UV); details: PBS (pH 7.4) and SCF, room temperature, 48 and 72 hours
Procedure: (§1) The solubility and stability at room temperature of Example compound 1 and the free acid compound 5-chloro-4-hydroxy-1-methyl-2-oxo-N-phenyl-quinoline-3-carboxamide (described in Example 1a) above) was determined in PBS (pH 7.4) and in simulated colonic fluid (SCF) at ambient temperature. The SCF was the product FaSSCof obtained from Biorelevant.com prepared according to the manufacturer’s instructions. FaSSCof contains 0.15 mM sodium cholate, 0.3 mM Phospholipids, 0.1 mM Oleate, 120 mM sodium hydroxide, 45 mM TRIS and 76 mM maleate.
(§2) Saturated solutions were prepared in these solvents and the concentrations/impurity profile was determined by HPLC-UV using a calibration curve in the range of 1 to 150 µg/ml at 300 nm or 320 nm. Visual evaluation was also performed after every step over the testing period.
The samples were also analysed for the presence of impurities. After a period of 48 and 72 hours, all impurities were below the lower limit of quantitation.

[3] = Solubility in PBS (pH 7.4) and simulated colonic fluid, saturated solutions by HPLC-UV; details: thermodynamic from solid, saturated solution, ambient temperature
Procedure: as §1, §2

[4] = Thermogravimetric analysis (TGA) and differential scanning calorimetry (DSC); details: heating 20° C./min, nitrogen
Procedure: For the TGA analysis, approximately 5-10 mg of sample of Example Compound 1 was accurately weighed into a pierced Tzero aluminium pan and sealed with a pinhole lid using a crimper. The sample was then loaded into the chamber of a TGA thermal analyser at ambient temperature. A TA Instruments TGA5500 device was used. The sample was then heated at a rate of 20° C./min from 20° C. to 400° C. The purge gas used was nitrogen at a flow rate of 50 cm^3/min.
For the DSC analysis, approximately 2 mg of sample was accurately weighed into a pierced Tzero aluminium pan and sealed using a universal crimper. The sample was then loaded into the chamber of a DSC analyser at ambient temperature. A TA Instruments DSC2500 device was used. The sample was then heated at a rate of 20° C./min from 30° C. to 400° C. The purge gas used was nitrogen at a flow rate of 50 cm^3/min

In the case of `Cn1c(=O)c(C(=O)Nc2ccccc2)c([O-])c2c(Cl)cccc21.[K+]` [Example compound 1, 5-chloro-4-hydroxy-1-methyl-2-oxo-N-phenyl-quinoline-3-carboxamide potassium salt], the Hygroscopicity ([1]; listed as 5-chloro-4-hydroxy-1-methyl-2-oxo-N-phenylquinoline-3-carboxamide potassium salt) is reported as “not hygroscopic”, the Hygroscopicity [1] is reported as “non-hygroscopic” and the “Reversible weight gain (DVS)” value ([1]; analysed to 80% RH) is reported as “less than 0.2%”. For the same compound, the “Stability in aqueous solution (impurities)” value [2] was “stable in aqueous solution”, the solubility ([3]; aqueous buffer, PBS (pH 7.4), read-out: Solubility in PBS (pH7.4)) was 0.91 µg/mL and the solubility ([3]; simulated colonic fluid (FaSSCof), fassgf or other biorelevant, SCF (FaSSCof), read-out: Solubility in simulated colonic fluid (SCF)) was 7.99 µg/mL. For the same compound, the Degradation temperature ([4]; listed as 5-chloro-4-hydroxy-1-methyl-2-oxo-N-phenyl-quinoline-3-carboxamide potassium sal, potassium salt) was 347 °C, the Degradation temperature ([4]; listed as Example Compound 1, potassium salt) was 347 °C ±2 °C and the Degradation temperature ([4]; potassium salt) was 347 °C.

Reference: US20230202982A1, “5-CHLORO-4-HYDROXY-1-METHYL-2-OXO-N-PHENYL-QUINOLINE-3-CARBOXAMIDE POTASSIUM SALT FOR TREATING INFLAMMATORY BOWEL DISEASES” (Aqilion AB, priority 2020, published 2023)
